Laboratory results reported in patent US9758484B2 (Asieris Pharmaceutical Technologies Co., Ltd., priority 2013, dated 2017).
Several values for one entry are separate records, joined by “and”; a condition that tells them apart may be missing. Identical values can stand only once.

How the values were obtained:
[1] = humans, orally administered; cited from earlier work
[2] = Solubility tests of nitroxoline and nitroxoline salts in aqueous buffers and water; format: physicochemical; details: aqueous buffers pH 1.2 to 8, 25 °C, pH 1.2, aqueous buffer, thermodynamic from solid, all pHs tested, from pH 1.2 to 8; read-out: solubility at all pHs tested
Protocol: 1) Aqueous buffer solutions with varying pH were prepared as follows: • i. Water: distilled water; • ii. pH=1.2 buffer: 7.65 mL 36.5% HCl solution was diluted to 1000 mL with water; • iii. pH=4.5 buffer: 18 g sodium acetate and 9.8 mL acetic acid were diluted to 1000 mL with water; • iv. pH=5.0 buffer: sodium hydroxide was added to 0.2 mol/L monosodium phosphate (NaH2PO4) solution until the pH was adjusted to 5.0; • v. pH=6.0 buffer: 18 g sodium acetate were added into 20 mL acetic acid solution (1 M), and the mixture was diluted to 500 mL with water; • vi. pH=6.8 buffer: 250 mL of 0.2 M monopotassium phosphate (KH2PO4) solution were added to 118 mL of 0.2 M sodium hydroxide solution, and the mixture was diluted to 1000 mL with water; • vii. pH=7.4 buffer: 1.36 g monopotassium phosphate (KH2PO4) were added to 79 mL of 0.1 M sodium hydroxide solution, and the mixture was diluted to 200 mL with water; and • viii pH=8.0 buffer: 5.59 g potassium biphosphate (K2HPO4) and 0.41 g monopotassium. phosphate (KH2PO4) were added to 1000 mL water and mixed.
2) Solubility tests were performed generally as follows:
Under a temperature of 25±2° C., 10 mg of each salt sample was weighed and added to a 100 mL volumetric bottle. 0.25 mL buffer was added to the bottle, which was shaken vigorously for 30 seconds every 5 min.
If the sample was not completely dissolved, 0.7 mL of the same buffer was added, and dissolution was observed by the same shaking procedure.
If the sample was not completely dissolved, 8.5 mL of the same buffer was added, and dissolution was observed by the same shaking procedure.
If the sample was not completely dissolved, 85 mL of the same buffer was added, and dissolution was observed by the same shaking procedure.

[3] = In vivo urinary excretion of nitroxoline and nitroxoline salts in beagle dogs
Protocol: Urine samples were collected in the following periods of time: 0-2, 2-4, 4-6, 6-8, 8-24 h. Urine samples were analyzed by LC/MS/MS method utilizing an Agilent 1100 HPLC system with a CTC auto-sampler, an AB API4000 mass spectrometer, and a column of ACQUITY UPLC BEH C18 (2.1*50 mm) Dexamethasone was used as an internal standard. […] The range of linearity was determined to be 25˜5000 ng/mL.
(§1) The same study was repeated with APL-1092, nitroxoline lysine salt.

[4] = In vivo urinary excretion of nitroxoline and nitroxoline salts in mice; parameters: species or system CD-1 ICR mice; details: 41.8 mg/kg
Protocol: Urine samples were collected in the following periods of time: 0-2, 2-6, 6-24 h. Due to the small volume of the urine from mice, the collecting system in the cage was washed with water at each collecting time. Urine samples and their wash samples were analyzed according to the same methods used in the beagle dog study (Example 24).
as §1

SMILES: O=[N+]([O-])c1ccc(O)c2ncccc12 [APL-1202, nitroxoline, reference compound]
- half-life (t1/2) [1]: 2.63 h
- solubility at 30 min [2]: < 100 µg/mL
- 24-Hr Accumulated drug in the urine ([3]; In Dogs, 75 mg APL-1202 or equivalent amount): 97 µg
- f (%): percentage of total mass of excreted drug versus the dose amount ([3]; individual dogs, oral tablet, 75 mg nitroxoline equivalent): 0.074% and 0.11% and 0.205%
- Total mass of nitroxoline in urine ([3]; individual dogs, oral tablet, 75 mg nitroxoline equivalent, 0-24 hr): 55350 ng and 82489 ng and 153888 ng
- Mass of nitroxoline in urine, 0-2 hr ([3]; individual dogs, oral tablet, 75 mg nitroxoline equivalent, collection 0-2 hr): 5670 ng and 60420 ng and 105600 ng
- Mass of nitroxoline in urine, 2-4 hr ([3]; individual dogs, oral tablet, 75 mg nitroxoline equivalent, collection 2-4 hr): 0 ng and 13005 ng and 5502 ng
- Mass of nitroxoline in urine, 4-6 hr ([3]; individual dogs, oral tablet, 75 mg nitroxoline equivalent, collection 4-6 hr): 0 ng and 817 ng and 28696 ng
- Mass of nitroxoline in urine, 6-8 hr ([3]; individual dogs, oral tablet, 75 mg nitroxoline equivalent, collection 6-8 hr): 0 ng and 2582 ng and 5808 ng
- Mass of nitroxoline in urine, 8-24 hr ([3]; individual dogs, oral tablet, 75 mg nitroxoline equivalent, collection 8-24 hr): 49680 ng and 5664 ng and 8282 ng
- f (%): percentage of total mass of excreted drug versus the dose amount, Mean ([3]; mean of dogs, oral tablet, 75 mg nitroxoline equivalent): 0.13%
- Total mass of nitroxoline in urine, Mean ([3]; mean of dogs, oral tablet, 75 mg nitroxoline equivalent, 0-24 hr): 97242 ng
- Mass of nitroxoline in urine, 0-2 hr, Mean ([3]; mean of dogs, oral tablet, 75 mg nitroxoline equivalent, collection 0-2 hr): 57230 ng
- Mass of nitroxoline in urine, 2-4 hr, Mean ([3]; mean of dogs, oral tablet, 75 mg nitroxoline equivalent, collection 2-4 hr): 9254 ng
- Mass of nitroxoline in urine, 4-6 hr, Mean ([3]; mean of dogs, oral tablet, 75 mg nitroxoline equivalent, collection 4-6 hr): 14757 ng
- Mass of nitroxoline in urine, 6-8 hr, Mean ([3]; mean of dogs, oral tablet, 75 mg nitroxoline equivalent, collection 6-8 hr): 4195 ng
- Mass of nitroxoline in urine, 8-24 hr, Mean ([3]; mean of dogs, oral tablet, 75 mg nitroxoline equivalent, collection 8-24 hr): 21209 ng
- 24-Hr Accumulated drug in the urine ([4]; In Mice, 41.8 mg/Kg APL-1202 or equivalent dose): 79.8 µg
- Total mass of nitroxoline in urine and wash ([4]; individual mice, oral, equivalent of 41.8 mg/Kg nitroxoline, 0-24 hr): 124391 ng and 50517 ng and 23093 ng and 41201 ng and 88137 ng and 151622 ng
- f (%): percentage of total mass of excreted drug versus the dose amount ([4]; individual mice, oral, equivalent of 41.8 mg/Kg nitroxoline): 15.2% and 6.17% and 2.94% and 5.24% and 10.9% and 19.5%
- Mass of nitroxoline, 0~2 wash ([4]; individual mice, oral, equivalent of 41.8 mg/Kg nitroxoline, cage wash 0~2 hr): 2856 ng and 6652.8 ng and 784 ng and 4212 ng and 8250 ng and 2352 ng
- Mass of nitroxoline, 2~6 wash ([4]; individual mice, oral, equivalent of 41.8 mg/Kg nitroxoline, cage wash 2~6 hr): 1283 ng and 5325 ng and 957 ng and 2904 ng and 1530 ng and 346 ng
- Mass of nitroxoline, 6~24 wash ([4]; individual mice, oral, equivalent of 41.8 mg/Kg nitroxoline, cage wash 6~24 hr): 249 ng and 1428 ng and 2341 ng and 1558 ng and 1102 ng and 152 ng
- Mass of nitroxoline in urine, 0-2 hr ([4]; individual mice, oral, equivalent of 41.8 mg/Kg nitroxoline, urine 0-2 hr): 109552 ng and 10584 ng and 1360 ng and 21035 ng and 61040 ng and 137700 ng
- Mass of nitroxoline in urine, 2-6 hr ([4]; individual mice, oral, equivalent of 41.8 mg/Kg nitroxoline, urine 2-6 hr): 10404 ng and 26418 ng and 17600 ng and 11412 ng and 14715 ng and 11000 ng
- Mass of nitroxoline in urine, 6-24 hr ([4]; individual mice, oral, equivalent of 41.8 mg/Kg nitroxoline, urine 6-24 hr): 47.8 ng and 109 ng and 50.9 ng and 81 ng and 1500 ng and 71.5 ng
- Total mass of nitroxoline in urine and wash, Mean ([4]; mean of mice, oral, equivalent of 41.8 mg/Kg nitroxoline, 0-24 hr): 79827 ng
- f (%): percentage of total mass of excreted drug versus the dose amount, Mean ([4]; mean of mice, oral, equivalent of 41.8 mg/Kg nitroxoline): 10%
- Mass of nitroxoline, 0~2 wash, Mean ([4]; mean of mice, oral, equivalent of 41.8 mg/Kg nitroxoline, cage wash 0~2 hr): 4184 ng
- Mass of nitroxoline, 2~6 wash, Mean ([4]; mean of mice, oral, equivalent of 41.8 mg/Kg nitroxoline, cage wash 2~6 hr): 2057 ng
- Mass of nitroxoline, 6~24 wash, Mean ([4]; mean of mice, oral, equivalent of 41.8 mg/Kg nitroxoline, cage wash 6~24 hr): 1138 ng
- Mass of nitroxoline in urine, 0-2 hr, Mean ([4]; mean of mice, oral, equivalent of 41.8 mg/Kg nitroxoline, urine 0-2 hr): 56879 ng
- Mass of nitroxoline in urine, 2-6 hr, Mean ([4]; mean of mice, oral, equivalent of 41.8 mg/Kg nitroxoline, urine 2-6 hr): 15258 ng
- Mass of nitroxoline in urine, 6-24 hr, Mean ([4]; mean of mice, oral, equivalent of 41.8 mg/Kg nitroxoline, urine 6-24 hr): 310 ng
